Experimental data as given in ChEMBL document CHEMBL4507273 (2021).
pKi: −log10 of the molar value.

How the values were obtained:
[1] = target: D(1A) dopamine receptor (Homo sapiens, UniProt P21728); assay: GPCRScan assay: inhibition of D1; set-up: radioligand conc. used [nm] 0.6 – 1.3, parental cells HEKT; conditions: for pKi: read-out: Ki
[2] = target: 5-hydroxytryptamine receptor 1B (Homo sapiens, UniProt P28222); conditions: Compound concentration 10.0 uM
[3] = system: Receptor-type tyrosine-protein kinase FLT3 (Homo sapiens), P36888 [N841I]; conditions: Compound concentration 1000.0 nM
[4] = target: Serine/threonine-protein kinase/endoribonuclease IRE1 (Homo sapiens) (UniProt O75460); conditions: Compound concentration 1000.0 nM
[5] = target: 5-hydroxytryptamine receptor 6 (Homo sapiens) (UniProt P50406); conditions: Compound concentration 10.0 uM
Chain of 5-hydroxytryptamine receptor 6 (Homo sapiens) (P50406 whole entry): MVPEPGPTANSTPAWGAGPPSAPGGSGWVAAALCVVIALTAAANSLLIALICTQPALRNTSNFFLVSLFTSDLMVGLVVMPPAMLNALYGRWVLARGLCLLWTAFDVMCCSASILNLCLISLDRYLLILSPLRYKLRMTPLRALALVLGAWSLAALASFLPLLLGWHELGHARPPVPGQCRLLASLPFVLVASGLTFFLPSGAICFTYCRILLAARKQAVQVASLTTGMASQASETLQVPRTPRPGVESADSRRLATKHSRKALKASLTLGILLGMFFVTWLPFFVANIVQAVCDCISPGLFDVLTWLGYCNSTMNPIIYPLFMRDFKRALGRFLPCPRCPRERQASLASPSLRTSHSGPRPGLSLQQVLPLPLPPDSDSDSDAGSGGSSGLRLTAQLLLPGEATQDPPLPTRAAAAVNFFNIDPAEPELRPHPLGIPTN

[6] = target: Serine/threonine-protein kinase NIM1 (Homo sapiens) (UniProt Q8IY84); conditions: Compound concentration 1000.0 nM
[7] = target: Cyclin-dependent kinase 18 (Homo sapiens) (UniProt Q07002); conditions: Compound concentration 1000.0 nM
[8] = target: Phosphorylase b kinase regulatory subunit alpha, liver isoform (Homo sapiens) (UniProt P46019); conditions: Compound concentration 1000.0 nM
[9] = target: T1, Alpha-1A adrenergic receptor (Homo sapiens, UniProt P35348); assay: GPCRScan assay: inhibition of Alpha1A; set-up: radioligand conc. used [nm] 0.2 - 1.0, parental cells stable HEK; conditions: for pKi: read-out: Ki
T1 sequence (P35348 whole entry): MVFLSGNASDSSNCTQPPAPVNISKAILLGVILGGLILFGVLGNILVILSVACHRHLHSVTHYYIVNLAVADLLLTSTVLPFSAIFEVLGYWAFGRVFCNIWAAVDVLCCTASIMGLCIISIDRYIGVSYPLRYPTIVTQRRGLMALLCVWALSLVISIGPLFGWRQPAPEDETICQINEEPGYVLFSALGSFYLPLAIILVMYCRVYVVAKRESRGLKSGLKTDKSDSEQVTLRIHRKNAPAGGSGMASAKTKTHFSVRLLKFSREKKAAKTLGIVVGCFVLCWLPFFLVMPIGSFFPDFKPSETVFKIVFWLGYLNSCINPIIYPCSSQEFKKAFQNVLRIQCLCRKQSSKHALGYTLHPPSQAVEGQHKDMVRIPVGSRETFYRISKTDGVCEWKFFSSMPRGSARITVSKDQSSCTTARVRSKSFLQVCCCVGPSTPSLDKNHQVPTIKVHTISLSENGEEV

[10] = target: Cyclin-dependent kinase 2 (Homo sapiens) (UniProt P24941); conditions: Compound concentration 1000.0 nM
[11] = target: Platelet-derived growth factor receptor alpha (Homo sapiens) (UniProt P16234); conditions: Compound concentration 1000.0 nM
[12] = target: Mitogen-activated protein kinase 10 (Homo sapiens) (UniProt P53779); conditions: Compound concentration 1000.0 nM
[13] = target: Tyrosine-protein kinase JAK2 (Homo sapiens) (UniProt O60674); conditions: Compound concentration 1000.0 nM
[14] = system: Phosphatidylinositol 4,5-bisphosphate 3-kinase catalytic subunit alpha isoform (Homo sapiens), P42336 [I800L]; conditions: Compound concentration 1000.0 nM
[15] = target: Muscarinic acetylcholine receptor M4 (Homo sapiens) (UniProt P08173); conditions: Compound concentration 10.0 uM
[16] = target: T2, Alpha-1B adrenergic receptor (Homo sapiens, UniProt P35368); assay: GPCRScan assay: inhibition of Alpha1B; set-up: radioligand conc. used [nm] 0.3 – 1.0, parental cells stable HEK; conditions: for pKi: read-out: Ki
T2 sequence (P35368 whole entry): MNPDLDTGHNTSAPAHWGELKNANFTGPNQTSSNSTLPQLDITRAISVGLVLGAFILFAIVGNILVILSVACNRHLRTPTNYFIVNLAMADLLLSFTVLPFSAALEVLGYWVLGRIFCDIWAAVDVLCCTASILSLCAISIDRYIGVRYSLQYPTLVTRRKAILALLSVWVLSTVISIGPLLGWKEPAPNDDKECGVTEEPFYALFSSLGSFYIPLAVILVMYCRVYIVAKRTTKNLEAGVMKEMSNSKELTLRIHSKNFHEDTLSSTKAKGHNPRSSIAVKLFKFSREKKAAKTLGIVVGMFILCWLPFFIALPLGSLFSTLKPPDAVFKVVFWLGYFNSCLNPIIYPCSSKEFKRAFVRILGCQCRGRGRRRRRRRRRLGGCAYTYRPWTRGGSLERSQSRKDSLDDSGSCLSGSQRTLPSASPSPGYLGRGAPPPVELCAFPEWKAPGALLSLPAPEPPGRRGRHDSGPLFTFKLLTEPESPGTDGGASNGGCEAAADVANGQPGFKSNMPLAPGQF

[17] = target: D(2) dopamine receptor (Homo sapiens, UniProt P14416); conditions: Compound concentration 10.0 uM
Chain of D(2) dopamine receptor (P14416 whole entry): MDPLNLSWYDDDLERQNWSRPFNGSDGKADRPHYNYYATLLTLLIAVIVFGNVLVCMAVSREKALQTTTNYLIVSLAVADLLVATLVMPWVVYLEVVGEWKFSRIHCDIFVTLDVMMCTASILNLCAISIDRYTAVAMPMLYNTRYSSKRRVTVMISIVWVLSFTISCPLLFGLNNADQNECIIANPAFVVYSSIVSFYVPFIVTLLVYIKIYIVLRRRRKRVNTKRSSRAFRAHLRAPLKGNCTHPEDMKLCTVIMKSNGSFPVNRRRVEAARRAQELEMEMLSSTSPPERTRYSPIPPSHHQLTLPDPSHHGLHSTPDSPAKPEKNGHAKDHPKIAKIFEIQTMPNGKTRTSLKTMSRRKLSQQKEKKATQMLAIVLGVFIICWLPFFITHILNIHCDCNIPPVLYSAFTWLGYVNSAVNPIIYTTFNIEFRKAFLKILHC

[18] = target: Myosin light chain kinase (Homo sapiens) (UniProt Q32MK0); conditions: Compound concentration 1000.0 nM
[19] = target: Calcium/calmodulin-dependent protein kinase type IV (Homo sapiens) (UniProt Q16566); conditions: Compound concentration 1000.0 nM
[20] = target: Ephrin type-A receptor 2 (Homo sapiens) (UniProt P29317); conditions: Compound concentration 1000.0 nM
Chain of Ephrin type-A receptor 2 (Homo sapiens) (P29317 whole entry): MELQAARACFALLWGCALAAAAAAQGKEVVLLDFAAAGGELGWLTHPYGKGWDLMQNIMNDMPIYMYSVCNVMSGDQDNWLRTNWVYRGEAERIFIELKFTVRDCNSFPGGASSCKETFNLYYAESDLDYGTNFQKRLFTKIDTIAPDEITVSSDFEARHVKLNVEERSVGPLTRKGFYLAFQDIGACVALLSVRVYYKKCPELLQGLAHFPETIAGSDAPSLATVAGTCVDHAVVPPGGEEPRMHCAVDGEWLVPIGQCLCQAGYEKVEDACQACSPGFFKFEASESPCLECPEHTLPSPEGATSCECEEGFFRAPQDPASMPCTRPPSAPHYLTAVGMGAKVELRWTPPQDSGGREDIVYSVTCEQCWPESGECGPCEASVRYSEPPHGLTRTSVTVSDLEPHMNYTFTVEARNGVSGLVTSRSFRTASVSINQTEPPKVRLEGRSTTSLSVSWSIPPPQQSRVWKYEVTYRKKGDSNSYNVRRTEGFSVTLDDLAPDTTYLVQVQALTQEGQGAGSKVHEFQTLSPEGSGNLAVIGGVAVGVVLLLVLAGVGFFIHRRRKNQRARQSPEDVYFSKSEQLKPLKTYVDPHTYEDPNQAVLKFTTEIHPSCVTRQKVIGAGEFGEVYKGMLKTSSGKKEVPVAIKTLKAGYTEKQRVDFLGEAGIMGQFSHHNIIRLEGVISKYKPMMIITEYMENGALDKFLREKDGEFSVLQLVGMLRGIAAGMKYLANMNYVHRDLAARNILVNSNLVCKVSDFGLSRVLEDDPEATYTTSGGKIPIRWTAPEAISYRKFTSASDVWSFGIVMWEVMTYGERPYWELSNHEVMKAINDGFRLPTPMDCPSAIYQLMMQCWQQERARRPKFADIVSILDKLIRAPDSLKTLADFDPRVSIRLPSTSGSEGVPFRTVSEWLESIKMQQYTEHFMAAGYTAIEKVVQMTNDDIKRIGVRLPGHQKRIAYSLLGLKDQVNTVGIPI

[21] = system: Hepatocyte growth factor receptor (Homo sapiens), P08581 [Y1235D]; conditions: Compound concentration 1000.0 nM
[22] = target: Non-receptor tyrosine-protein kinase TNK1 (Homo sapiens) (UniProt Q13470); conditions: Compound concentration 1000.0 nM
Chain of Non-receptor tyrosine-protein kinase TNK1 (Homo sapiens) (Q13470 whole entry): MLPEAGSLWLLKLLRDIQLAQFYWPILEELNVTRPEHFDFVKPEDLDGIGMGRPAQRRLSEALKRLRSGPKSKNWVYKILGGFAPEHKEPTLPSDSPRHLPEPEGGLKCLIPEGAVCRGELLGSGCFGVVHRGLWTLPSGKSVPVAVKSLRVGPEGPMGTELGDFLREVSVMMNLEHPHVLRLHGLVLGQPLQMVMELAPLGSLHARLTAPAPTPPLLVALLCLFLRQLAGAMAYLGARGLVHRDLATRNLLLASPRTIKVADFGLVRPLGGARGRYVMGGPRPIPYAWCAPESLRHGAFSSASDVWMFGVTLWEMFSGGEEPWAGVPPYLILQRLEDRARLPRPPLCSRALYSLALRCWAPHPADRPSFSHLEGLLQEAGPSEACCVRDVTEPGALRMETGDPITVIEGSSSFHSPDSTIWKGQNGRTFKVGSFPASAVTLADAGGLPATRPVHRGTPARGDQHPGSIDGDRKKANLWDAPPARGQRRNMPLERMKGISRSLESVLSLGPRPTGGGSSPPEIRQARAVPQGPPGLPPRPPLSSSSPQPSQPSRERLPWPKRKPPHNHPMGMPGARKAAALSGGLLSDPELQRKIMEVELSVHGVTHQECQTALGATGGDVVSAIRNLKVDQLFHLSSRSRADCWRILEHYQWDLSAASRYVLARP

[23] = system: Epidermal growth factor receptor (Homo sapiens), P00533 [L858R]; conditions: Compound concentration 1000.0 nM
[24] = target: Platelet-derived growth factor receptor beta (Homo sapiens) (UniProt P09619); conditions: Compound concentration 1000.0 nM
Chain of Platelet-derived growth factor receptor beta (Homo sapiens) (P09619 whole entry): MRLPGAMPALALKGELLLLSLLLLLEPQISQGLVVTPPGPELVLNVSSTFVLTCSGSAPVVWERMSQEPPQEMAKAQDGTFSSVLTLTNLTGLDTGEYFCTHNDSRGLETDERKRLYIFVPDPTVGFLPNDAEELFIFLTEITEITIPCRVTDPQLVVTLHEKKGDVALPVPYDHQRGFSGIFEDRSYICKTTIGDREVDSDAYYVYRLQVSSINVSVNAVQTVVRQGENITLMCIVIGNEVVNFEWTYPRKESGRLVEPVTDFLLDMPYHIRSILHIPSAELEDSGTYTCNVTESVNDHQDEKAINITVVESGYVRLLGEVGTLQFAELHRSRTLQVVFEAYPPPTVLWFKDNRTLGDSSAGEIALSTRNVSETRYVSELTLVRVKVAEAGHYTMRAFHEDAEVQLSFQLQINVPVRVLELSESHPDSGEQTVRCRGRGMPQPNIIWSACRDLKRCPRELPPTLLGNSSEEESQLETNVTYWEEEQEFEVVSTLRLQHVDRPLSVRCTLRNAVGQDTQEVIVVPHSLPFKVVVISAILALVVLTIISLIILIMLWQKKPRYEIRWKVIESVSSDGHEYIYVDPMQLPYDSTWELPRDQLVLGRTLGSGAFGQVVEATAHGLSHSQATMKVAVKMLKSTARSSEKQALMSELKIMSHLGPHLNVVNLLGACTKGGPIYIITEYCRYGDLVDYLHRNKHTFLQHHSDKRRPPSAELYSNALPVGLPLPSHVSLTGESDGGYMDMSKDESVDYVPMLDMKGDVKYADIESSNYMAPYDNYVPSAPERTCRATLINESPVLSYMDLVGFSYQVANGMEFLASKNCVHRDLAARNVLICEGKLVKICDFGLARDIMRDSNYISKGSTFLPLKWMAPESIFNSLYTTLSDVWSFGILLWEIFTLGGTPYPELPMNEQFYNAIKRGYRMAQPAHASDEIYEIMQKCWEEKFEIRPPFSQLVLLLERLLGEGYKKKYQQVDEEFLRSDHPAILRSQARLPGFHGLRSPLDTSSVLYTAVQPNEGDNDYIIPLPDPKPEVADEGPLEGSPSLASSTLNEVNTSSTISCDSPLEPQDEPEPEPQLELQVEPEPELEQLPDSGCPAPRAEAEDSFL

[25] = target: Calcium/calmodulin-dependent protein kinase kinase 2 (Homo sapiens) (UniProt Q96RR4); conditions: Compound concentration 1000.0 nM
[26] = target: Ribosomal protein S6 kinase alpha-2 (Homo sapiens) (UniProt Q15349); conditions: Compound concentration 1000.0 nM
Chain of Ribosomal protein S6 kinase alpha-2 (Homo sapiens) (Q15349 whole entry): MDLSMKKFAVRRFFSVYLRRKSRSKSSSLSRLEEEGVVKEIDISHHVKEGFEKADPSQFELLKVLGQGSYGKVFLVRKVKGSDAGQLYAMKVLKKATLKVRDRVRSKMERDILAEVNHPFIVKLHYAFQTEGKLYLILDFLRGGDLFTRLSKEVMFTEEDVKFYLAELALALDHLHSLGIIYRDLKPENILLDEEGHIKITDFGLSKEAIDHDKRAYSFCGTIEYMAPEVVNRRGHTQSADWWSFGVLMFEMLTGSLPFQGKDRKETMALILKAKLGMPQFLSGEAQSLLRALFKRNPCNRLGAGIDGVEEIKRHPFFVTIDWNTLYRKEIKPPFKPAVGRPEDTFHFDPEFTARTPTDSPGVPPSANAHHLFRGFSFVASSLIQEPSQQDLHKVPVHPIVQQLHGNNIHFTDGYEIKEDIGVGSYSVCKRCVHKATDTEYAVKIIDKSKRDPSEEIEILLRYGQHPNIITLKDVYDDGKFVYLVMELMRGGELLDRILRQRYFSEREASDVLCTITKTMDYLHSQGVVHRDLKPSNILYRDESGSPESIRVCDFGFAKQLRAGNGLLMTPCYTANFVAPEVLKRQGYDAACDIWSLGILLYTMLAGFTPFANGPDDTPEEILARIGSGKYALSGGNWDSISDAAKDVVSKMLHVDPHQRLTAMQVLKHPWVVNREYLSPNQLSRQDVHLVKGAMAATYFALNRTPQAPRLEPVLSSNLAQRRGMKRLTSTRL

[27] = target: Receptor-interacting serine/threonine-protein kinase 4 (Homo sapiens) (UniProt P57078); conditions: Compound concentration 1000.0 nM
[28] = target: Tyrosine-protein kinase receptor TYRO3 (Homo sapiens) (UniProt Q06418); conditions: Compound concentration 1000.0 nM
[29] = system: Tyrosine-protein kinase ABL1 (Homo sapiens), P00519 [Q252H]; conditions: Compound concentration 1000.0 nM
[30] = target: Interleukin-1 receptor-associated kinase 3 (Homo sapiens) (UniProt Q9Y616); conditions: Compound concentration 1000.0 nM
[31] = target: Serine/threonine-protein kinase MRCK beta (Homo sapiens) (UniProt Q9Y5S2); conditions: Compound concentration 1000.0 nM
[32] = target: Cyclin-dependent kinase 14 (Homo sapiens) (UniProt O94921); conditions: Compound concentration 1000.0 nM

Chain of D(1A) dopamine receptor (P21728 whole entry): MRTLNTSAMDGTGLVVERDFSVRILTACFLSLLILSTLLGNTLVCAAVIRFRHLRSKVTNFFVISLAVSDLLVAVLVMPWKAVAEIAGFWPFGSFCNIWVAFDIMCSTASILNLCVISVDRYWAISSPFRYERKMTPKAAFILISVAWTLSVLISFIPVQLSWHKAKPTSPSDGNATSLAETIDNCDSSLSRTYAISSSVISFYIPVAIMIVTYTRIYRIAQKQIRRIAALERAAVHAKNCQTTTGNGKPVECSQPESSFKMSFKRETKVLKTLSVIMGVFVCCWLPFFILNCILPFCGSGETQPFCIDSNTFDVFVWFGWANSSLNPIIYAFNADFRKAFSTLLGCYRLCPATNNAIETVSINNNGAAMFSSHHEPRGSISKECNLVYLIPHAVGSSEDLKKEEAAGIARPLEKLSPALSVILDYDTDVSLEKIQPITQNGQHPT

Compound: CNCc1ccccc1-c1csc([C@@H](C)Nc2nc(C)nc3cc(OC)c(OC)cc23)c1 [BAY-293]
- pKi [1]: 5.90
- inhibition [2]: 66.1%
- residual activity [3]: 77%
- residual activity [4]: 100%
- inhibition [5]: -1.41%
- residual activity [6]: 93%
- residual activity [7]: 100%
- residual activity [8]: 100%
- pKi [9]: 6.37
- residual activity [10]: 82%
- residual activity [11]: 84%
- residual activity [12]: 71%
- residual activity [13]: 67%
- residual activity [14]: 85%
- inhibition [15]: 43.1%
- pKi [16]: 6.58
- inhibition [17]: 32.3%
- residual activity [18]: 96%
- residual activity [19]: 88%
- residual activity [20]: 76%
- residual activity [21]: 100%
- residual activity [22]: 64%
- residual activity [23]: 82%
- residual activity [24]: 91%
- residual activity [25]: 100%
- residual activity [26]: 100%
- residual activity [27]: 91%
- residual activity [28]: 89%
- residual activity [29]: 85%
- residual activity [30]: 75%
- residual activity [31]: 89%
- residual activity [32]: 100%

Compound: CNCc1ccccc1-c1csc([C@H](C)Nc2nc(C)nc3cc(OC)c(OC)cc23)c1 [BAY-294]
- pKi [1]: 6.14
- Ki ([1]; read-out: pKi (converted)): 562 nM
- inhibition [2]: 75%
- residual activity [3]: 100%
- residual activity [4]: 100%
- inhibition [5]: 20.2%
- residual activity [6]: 90%
- residual activity [7]: 100%
- residual activity [8]: 100%
- pKi [9]: 6.34
- Ki ([9]; read-out: pKi (converted)): 437 nM
- residual activity [10]: 91%
- residual activity [11]: 92%
- residual activity [12]: 74%
- residual activity [13]: 63%
- residual activity [14]: 81%
- inhibition [15]: 59.4%
- pKi [16]: 7.02
- Ki ([16]; read-out: pKi (converted)): 86.1 nM
- inhibition [17]: 50.6%
- residual activity [18]: 100%
- residual activity [19]: 99%
- residual activity [20]: 80%
- residual activity [21]: 98%
- residual activity [22]: 85%
- residual activity [23]: 100%
- residual activity [24]: 99%
- residual activity [25]: 82%
- residual activity [26]: 100%
- residual activity [27]: 75%
- residual activity [28]: 100%
- residual activity [29]: 84%
- residual activity [30]: 83%
- residual activity [31]: 100%
- residual activity [32]: 100%
